The text below walks through data of PubChem BioAssay (NCI).

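Five concentrations, 48 hours, 96-well plates. GI50: concentration for 50% inhibition of growth. TGI: total growth inhibition.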

Among the test systems are NCI-H460 lung; M14 melanoma; EKVX NSCLC; SK-MEL-2 melanoma; MALME-3M melanoma; SW-620 colon; A498 renal; CCRF-CEM leukemia; UACC-257 melanoma; OVCAR-4 ovarian.
Holding throughout (experiment): inhibition of tumour cell growth, NCI panel, 48 h

Take `OCC1CC2C=CCC(C2)C1` (configuration not stated): the TGI in the assay on NCI-H460 lung, with M14 melanoma, with EKVX NSCLC, with SK-MEL-2 melanoma, in the assay with MALME-3M melanoma and in the assay on SW-620 colon was more than 100 µM each time. Also, the TGI with A498 renal, with CCRF-CEM leukemia, in the assay with UACC-257 melanoma and in the assay on OVCAR-4 ovarian was more than 100 µM throughout.
In the case of `C[N+]1(CCNP(=S)(NCC[N+]2(C)Cc3c(ccc4c3OCO4)C3C2c2cc4c(cc2C[C@@H]3O)OCO4)NCC[N+]2(C)Cc3c(ccc4c3OCO4)C3C2c2cc4c(cc2C[C@@H]3O)OCO4)Cc2c(ccc3c2OCO3)C2C1c1cc3c(cc1C[C@H]2O)OCO3` (some centres not stated), the GI50 in the assay with NCI-H460 lung is 0.976 µM; with EKVX NSCLC, 45.9 µM; in the assay with MALME-3M melanoma, 2.09 µM; in the assay on SW-620 colon, 1.4 µM; with A498 renal it was 1.54 µM; in the assay on UACC-257 melanoma, 1.44 µM. The GI50 in the assay on OVCAR-4 ovarian is 4.74 µM. Further, the TGI with M14 melanoma is less than 0.00191 µM; with SK-MEL-2 melanoma it was less than 0.00191 µM; in the assay with CCRF-CEM leukemia, more than 383 µM.
In the case of `C[C@]12CC[C@@H]3c4ccc(O)cc4CC[C@H]3[C@@H]1CC(Cc1ccccc1)(Cc1ccccc1)C2=O`, the GI50 in the assay on NCI-H460 lung was 12.1 µM; in the assay with M14 melanoma, 13.1 µM; in the assay on EKVX NSCLC it was 10.9 µM; in the assay on SK-MEL-2 melanoma, 24.8 µM; with MALME-3M melanoma, 23.5 µM; in the assay with SW-620 colon, 14.2 µM. Besides, the GI50 in the assay on A498 renal was 21.3 µM; in the assay with CCRF-CEM leukemia, 14.3 µM; with UACC-257 melanoma it was 18.4 µM; in the assay with OVCAR-4 ovarian, 12.7 µM. The TGI came to 38.1 µM with NCI-H460 lung; 26.2 µM in the assay on M14 melanoma; 24.7 µM with EKVX NSCLC; 53.6 µM with SK-MEL-2 melanoma; 48.9 µM with MALME-3M melanoma; 30 µM with SW-620 colon. For the same molecule, the TGI turned out to be 36.5 µM in the assay with A498 renal, 36.4 µM in the assay on CCRF-CEM leukemia, 39.5 µM with UACC-257 melanoma and 27.3 µM with OVCAR-4 ovarian.
In the case of `CC[C@H](C)[C@H](NC(=O)c1ncccn1)C(=O)N(C)[C@H](C[C@@H](OC(C)=O)c1nc(C(=O)N[C@@H](Cc2ccccc2)C[C@H](C)C(=O)OC)cs1)C(C)C`, the GI50 with NCI-H460 lung was 0.925 µM; with M14 melanoma it was 1.13 µM; in the assay with EKVX NSCLC, 4.62 µM; in the assay with MALME-3M melanoma it was 1.29 µM; with SW-620 colon it was 0.896 µM; in the assay on A498 renal, 2.7 µM. Moreover, the GI50 in the assay with CCRF-CEM leukemia is 0.853 µM; in the assay with UACC-257 melanoma, 2.38 µM; in the assay on OVCAR-4 ovarian, 4.42 µM. For the same molecule, the TGI in the assay with NCI-H460 lung is more than 25 µM; with M14 melanoma it was more than 25 µM; with EKVX NSCLC, more than 25 µM; in the assay on MALME-3M melanoma, more than 25 µM; in the assay with SW-620 colon, more than 25 µM; with A498 renal it was 17.6 µM. Besides, the TGI in the assay on CCRF-CEM leukemia is 7.19 µM; in the assay on UACC-257 melanoma it was more than 25 µM; in the assay on OVCAR-4 ovarian, more than 25 µM.
Take `Cc1cc(C)c([I+]c2c(C)cc(C)cc2C)c(C)c1`: the GI50 in the assay on NCI-H460 lung is 0.846 µM; in the assay with M14 melanoma it was 0.44 µM; in the assay on SK-MEL-2 melanoma, 0.482 µM; in the assay with MALME-3M melanoma, 0.37 µM; with A498 renal, 1.56 µM; with CCRF-CEM leukemia, 0.365 µM. For the same molecule, the GI50 is 0.296 µM with UACC-257 melanoma and 0.277 µM in the assay with OVCAR-4 ovarian. Also, the TGI worked out at 2.3 µM in the assay on NCI-H460 lung; 1.69 µM in the assay with M14 melanoma; 1.61 µM with SK-MEL-2 melanoma; 1.46 µM in the assay with MALME-3M melanoma; 3.64 µM with A498 renal; 2.24 µM with CCRF-CEM leukemia. In addition, the TGI with UACC-257 melanoma stood at 1.09 µM; in the assay with OVCAR-4 ovarian, 1.35 µM.
`COc1cc(OCCCN2CCCC2)ccc1Nc1ncc(Cl)c(Nc2ccccc2P(C)(C)=O)n1`: the GI50 with NCI-H460 lung was 2.47 µM; with M14 melanoma, 2.58 µM; in the assay with EKVX NSCLC, 0.828 µM; in the assay on SK-MEL-2 melanoma, 2.24 µM; with MALME-3M melanoma, 6.06 µM; in the assay on SW-620 colon it was 1.37 µM. Besides, the GI50 was 0.175 µM in the assay on A498 renal, 2.09 µM in the assay with CCRF-CEM leukemia, 6.42 µM in the assay on UACC-257 melanoma and 1.52 µM in the assay with OVCAR-4 ovarian. The TGI was 12 µM in the assay on NCI-H460 lung; 12.3 µM with M14 melanoma; more than 20.5 µM with EKVX NSCLC; 6.21 µM with SK-MEL-2 melanoma; 22.6 µM in the assay on MALME-3M melanoma; 5.36 µM in the assay with SW-620 colon. Besides, the TGI with A498 renal amounted to 1.12 µM; with CCRF-CEM leukemia it was 15.8 µM; in the assay with UACC-257 melanoma, 24 µM; in the assay with OVCAR-4 ovarian, 11.7 µM.
As to `CC1(C)N=C(N)N=C(N)N1c1cccc(CCCCc2ccc(Cl)c(S(=O)(=O)F)c2)c1`, the GI50 in the assay with NCI-H460 lung was 0.938 µM; in the assay on M14 melanoma, 3.21 µM; in the assay with EKVX NSCLC, 11.4 µM; with SK-MEL-2 melanoma, 8.53 µM; with MALME-3M melanoma it was 9.71 µM; in the assay with SW-620 colon, 0.455 µM. Besides, the GI50 in the assay with A498 renal is 16.4 µM; in the assay with CCRF-CEM leukemia, 0.764 µM; in the assay on UACC-257 melanoma it was 1.14 µM; in the assay with OVCAR-4 ovarian it was 11.8 µM. For the same molecule, the TGI in the assay on NCI-H460 lung was determined as 14.5 µM; in the assay with M14 melanoma, 17.4 µM; with EKVX NSCLC it was 39.8 µM; in the assay with SK-MEL-2 melanoma, 25.4 µM; in the assay with MALME-3M melanoma, 28.3 µM; in the assay on SW-620 colon, 15.8 µM. Further, the TGI stood at 52.9 µM with A498 renal, 17.6 µM in the assay on CCRF-CEM leukemia, 18.7 µM with UACC-257 melanoma and 29.6 µM in the assay with OVCAR-4 ovarian.
In the case of `COc1ccc2c(c1)C(=O)/C(=C/c1ccc(O)cc1)O2`, the GI50 is 20.3 µM with NCI-H460 lung; 15.3 µM in the assay with M14 melanoma; 18.6 µM in the assay with EKVX NSCLC; 5.47 µM in the assay on MALME-3M melanoma; 3.34 µM with SW-620 colon; 23.2 µM in the assay with A498 renal. The GI50 in the assay with CCRF-CEM leukemia is 1.63 µM; in the assay on UACC-257 melanoma, 19.8 µM; with OVCAR-4 ovarian, 5.67 µM. For the same molecule, the TGI in the assay with NCI-H460 lung is 50.3 µM; in the assay on M14 melanoma it was 34 µM; in the assay with EKVX NSCLC, more than 53.5 µM; in the assay on MALME-3M melanoma, 13.2 µM; in the assay with SW-620 colon, 8.99 µM; in the assay on A498 renal, 49.3 µM. Further, the TGI in the assay with CCRF-CEM leukemia was found to be 3.54 µM; in the assay on UACC-257 melanoma it was 35.2 µM; in the assay on OVCAR-4 ovarian, 12.7 µM.
